The results in this text go back to PubChem BioAssay (NCI).

Some test systems named below: HCT-116 colon; HOP-62 NSCLC; TK-10 renal; SK-MEL-2 melanoma; SK-MEL-5 melanoma; HCT-15 colon; CCRF-CEM leukemia; UACC-62 melanoma; A549 NSCLC; SF-539 CNS; HL-60(TB) leukemia; K-562 leukemia; IGROV1 ovarian; HOP-92 NSCLC; CAKI-1 renal.
What all share (assay): DTP human tumour cell line panel, 48 h

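Values below derive from 48-hour exposures of cells grown in 96-well plates, with endpoints linearly interpolated between the two concentrations bracketing the appropriate inhibition level. GI50 = concentration required for 50% inhibition of growth. TGI denotes the concentration required for complete inhibition of growth.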

For `O=C1CCN(CCC(F)(F)C(F)(F)C(F)(F)C(F)(F)F)C(=S)N1`, the total growth inhibition concentration (TGI) in the assay on HCT-116 colon, in the assay with HOP-62 NSCLC, in the assay with TK-10 renal, in the assay with SK-MEL-2 melanoma, with SK-MEL-5 melanoma and in the assay with HCT-15 colon was > 100 µM each time. Besides, the TGI with CCRF-CEM leukemia, in the assay on UACC-62 melanoma, in the assay on A549 NSCLC, in the assay with SF-539 CNS, in the assay on HL-60(TB) leukemia and in the assay with K-562 leukemia was > 100 µM each time. For the same compound, the concentration for total growth inhibition (TGI) in the assay on IGROV1 ovarian is > 100 µM.
In the case of `CC1=N/C(=C\c2ccc(N)cc2)C(=O)N1Nc1nnc(NN2C(=O)/C(=C/c3ccc(N)cc3)N=C2C)c2ccccc12`, the TGI in the assay on HCT-116 colon is > 100 µM; in the assay on HOP-62 NSCLC, 64.3 µM; in the assay with SK-MEL-5 melanoma, > 100 µM; with HCT-15 colon, > 100 µM; with CCRF-CEM leukemia, > 100 µM; in the assay on UACC-62 melanoma, > 100 µM. The TGI in the assay with A549 NSCLC was > 100 µM; in the assay on SF-539 CNS it was > 100 µM; in the assay on HL-60(TB) leukemia, 56.1 µM; with K-562 leukemia, > 100 µM; with IGROV1 ovarian, > 100 µM; in the assay on HOP-92 NSCLC, > 100 µM.
As for `COC(=O)C(=O)C(C(=O)C(=O)Nc1ccccc1C(N)=O)c1nc2ccc([N+](=O)[O-])cc2[nH]c1=O` (centres undefined), the TGI in the assay on CAKI-1 renal, with HCT-116 colon, in the assay with HOP-62 NSCLC, with TK-10 renal, with SK-MEL-2 melanoma and in the assay on SK-MEL-5 melanoma was > 100 µM throughout. The TGI in the assay on HCT-15 colon, with CCRF-CEM leukemia, in the assay on UACC-62 melanoma, in the assay on A549 NSCLC, with SF-539 CNS and in the assay on HL-60(TB) leukemia was > 100 µM throughout. Also, the TGI with K-562 leukemia, in the assay on IGROV1 ovarian and in the assay with HOP-92 NSCLC was > 100 µM throughout.
For `NC(=S)N/N=C/c1cn(CCCl)c2ccccc12`, the TGI in the assay on CAKI-1 renal was > 100 µM; with HCT-116 colon, > 100 µM; with HOP-62 NSCLC, > 100 µM; in the assay on TK-10 renal, > 100 µM; in the assay with SK-MEL-2 melanoma, > 100 µM; with SK-MEL-5 melanoma, 67.4 µM. Also, the total growth inhibition concentration (TGI) is > 100 µM in the assay with HCT-15 colon; > 100 µM in the assay on CCRF-CEM leukemia; > 100 µM in the assay with UACC-62 melanoma; > 100 µM in the assay on A549 NSCLC; 53.8 µM with HL-60(TB) leukemia; > 100 µM in the assay with K-562 leukemia. In addition, the concentration for total growth inhibition (TGI) in the assay on IGROV1 ovarian and in the assay with HOP-92 NSCLC was > 100 µM throughout.
For the compound `COc1ccc(/C=C2\C(=O)Nc3ccccc32)cc1OC`, the TGI in the assay on CAKI-1 renal, in the assay on HCT-116 colon, in the assay with HOP-62 NSCLC, with TK-10 renal, in the assay on SK-MEL-2 melanoma and in the assay on SK-MEL-5 melanoma was > 100 µM throughout. In addition, the TGI in the assay with HCT-15 colon, in the assay on CCRF-CEM leukemia, in the assay with UACC-62 melanoma, in the assay with A549 NSCLC, with SF-539 CNS and with HL-60(TB) leukemia was > 100 µM throughout. Besides, the TGI with K-562 leukemia, with IGROV1 ovarian and in the assay with HOP-92 NSCLC was > 100 µM in each case.
Regarding `COc1ccc(-c2cc(=O)c3cc4c(cc3[nH]2)OCO4)c(OC)c1`, the TGI with CAKI-1 renal was > 100 µM; in the assay with HCT-116 colon, > 100 µM; in the assay with HOP-62 NSCLC it was > 100 µM; in the assay on TK-10 renal, > 100 µM; with SK-MEL-2 melanoma, > 100 µM; with SK-MEL-5 melanoma, 80.1 µM. In addition, the TGI was > 100 µM in the assay with HCT-15 colon; > 100 µM in the assay on CCRF-CEM leukemia; > 100 µM with UACC-62 melanoma; > 100 µM in the assay on A549 NSCLC; > 100 µM with SF-539 CNS; 46.3 µM in the assay on HL-60(TB) leukemia. The TGI in the assay on K-562 leukemia, in the assay with IGROV1 ovarian and in the assay with HOP-92 NSCLC was > 100 µM in each case. In addition, in the assay on HCT-116 colon, the GI50 was 40.7 µM.
On to `O=C(CSc1nc(-c2ccccc2)c(-c2ccccc2)[nH]1)N/N=C/c1ccc([N+](=O)[O-])cc1`, for which the total growth inhibition concentration (TGI) in the assay with HCT-116 colon came to 32.7 µM; in the assay on HOP-62 NSCLC, 33.7 µM; in the assay with TK-10 renal it was 39.4 µM; in the assay with SK-MEL-2 melanoma, 26.9 µM; in the assay with SK-MEL-5 melanoma it was 31.1 µM; in the assay with HCT-15 colon, 28.1 µM. In addition, the TGI in the assay on CCRF-CEM leukemia is 61.3 µM; in the assay with A549 NSCLC, 57.5 µM; in the assay on SF-539 CNS, 29.9 µM; in the assay on HL-60(TB) leukemia it was 71.1 µM; in the assay on IGROV1 ovarian it was 33.8 µM; in the assay on HOP-92 NSCLC, 29.3 µM.
Turning to `COc1cc(/C=C(\C)c2ccc3c(c2)OCO3)cc(OC)c1OC`, the TGI in the assay on HCT-116 colon is > 100 µM; with HOP-62 NSCLC, > 100 µM; in the assay with TK-10 renal, > 100 µM; in the assay on SK-MEL-2 melanoma, 63.6 µM; in the assay on SK-MEL-5 melanoma, 24.2 µM; in the assay on HCT-15 colon, > 100 µM. The concentration for total growth inhibition (TGI) with CCRF-CEM leukemia is > 100 µM; with A549 NSCLC, > 100 µM; in the assay on SF-539 CNS, 58.7 µM; in the assay with HL-60(TB) leukemia, > 100 µM; in the assay on K-562 leukemia, > 100 µM; in the assay on IGROV1 ovarian, > 100 µM.
